The values below are quoted from earlier work in patent US20220287943A1, “METHOD FOR TREATING KERATIN MATERIAL, COMPRISING THE APPLICATION OF AN ORGANIC C1-C6-ALKOXY-SILANE AND AN AMINO ACID AND/OR AMINO ACID DERIVATIVE” (Henkel AG & Co. KGaA, priority 2019, published 2022).

The conditions of the data set: for solubility in water: about 25° C.

For `O=S(=O)([O-])c1ccc(N=Nc2c(O)ccc3ccccc23)cc1.[Na+]` [Acid Orange 7, sodium salt of 4-[(2-hydroxy-1-naphthy)azo]lbenzene sulphonate], the solubility in water entry is reported as “more than 7 g/L”.
Take `Nc1cc(S(=O)(=O)[O-])cc2cc(S(=O)(=O)[O-])c(N=Nc3ccccc3)c(O)c12.[Na+].[Na+]` [Acid Red 33, diantrium salt of 5-amino-4-hydroxy-3-(phenylazo)-naphthalene-2,7-disulphonate]: the solubility in water result is “about 2.5 g/L”.
With `O=C([O-])C1=NN(c2ccc(S(=O)(=O)[O-])cc2)C(=O)C1N=Nc1ccc(S(=O)(=O)[O-])cc1.[Na+].[Na+].[Na+]` (stereo not drawn) [Acid Yellow 23, trisodium salt of 4,5-dihydro-5-oxo-1-(4-sulfophenyl)-4-((4-sulfophenyl)azo)-1H-pyrazole-3-carboxylic acid], the “solubility in water (in words)” value (at about 25° C.) is on record as “highly soluble in water”.
